According to patent publication US10549006B2, “High-coverage, low odor malodor counteractant compounds and methods of use” (International Flavors & Fragrances Inc., priority 2014, dated 2020):

How the values were obtained:
[1] = Percent Reduction of Malodor Intensity; details: 10% in water
From the text: (iii) Malodor counteracting effect of Compounds 1-6 (10% in water) was further evaluated and their respective “Percent Reduction of Malodor Intensity” was reported in the following: […]

[2] = Malodor counteracting effect, scale of 0 to 5; details: 10% in water; scale of 0 to 5, 0=none, 1=minimal effect, 5=the highest possible effect
Experimental: (ii) Malodor counteracting effect was evaluated using a scale of 0 to 5, where 0=none, 1=minimal effect and 5=the highest possible effect. High coverage of mold/mildew and sweat malodors by Compounds 1-6 (10% in water) was reported in the following: […]

| SMILES | Percent Reduction of Malodor Intensity, Bathroom [1] [%] | Percent Reduction of Malodor Intensity, Mold/Mildew [1] [%] | Percent Reduction of Malodor Intensity, Smoke [1] [%] | Percent Reduction of Malodor Intensity, Sweat [1] [%] | Malodor counteracting effect, Mold/Mildew [2] | Malodor counteracting effect, Sweat [2] |
| --- | --- | --- | --- | --- | --- | --- |
| COC1CCC(C(C)C)CC1 (stereo not drawn) [Compound 1, 1-methoxy-4-(methylethyl)-cyclohexane] | 92 | 88 | 84 | 83 | 4.62 | 4.51 |
| CCOC1C(C)CCCC1C (stereo not drawn) [Compound 2, 2-ethoxy-1,3-dimethyl-cyclohexane] | 90 | 79 | 87 | 90 | 4.44 | 4.56 |
| CC(C)CC1OC(C)CCC1C(C)CC=O (stereo not drawn) [Compound 3, 3-[6-methyl-2-(2-methylpropyl)tetrahydro-2H-pyran-3-yl]butanal] | 85 | 81 | 82 | 86 | 4.08 | 4.15 |
| CCCCCCOC1CCC(C)(C)O1 (stereo not drawn) [Compound 4, 5-hexyloxy-2,2-dimethyl-tetrahydro-furan] | 83 | 74 | 76 | 79 | 4.27 | 4.53 |
| CC(C)C(C)C(C)C(C)O (stereo not drawn) [Compound 5, 3,4,5-trimethyl-hexan-2-ol] | 92 | 80 | 83 | 85 | 4.22 | 4.47 |
| CC(=O)C(C)C(C)C(C)C (stereo not drawn) [Compound 6, 3,4,5-trimethyl-hexan-2-one] | 87 | 90 | 84 | 83 | 4.04 | 4.30 |
